Earlier results, collected in patent US6288040A, “Medicament excipient particles for tissue-specific application of a medicament” (DSS Drug Delivery Service Gesellschaft zur Forderung der …, priority 1997, dated 2001).
Non-standard residues stand in square brackets, D forms with d. No end group written: not given here.

Tested on: mice
Conditions: free dalargin, high dosage 20 mg/kg

Tyr-D-Ala-Gly-Phe-Leu-Arg (Y[dA]GFLR) [dalargin, hexapeptide, leu-enkephalin-analogon, opioid receptor agonist]
analgesic effect after i.v. administration of dalargin: does not lead to an analgesic effect
